Measurements taken from paper PMC3365510 (Bioorganic & medicinal chemistry letters, 2012).
Several values for one entry are separate records, joined by “and”; a condition that tells them apart may be missing. Equal values may be shown once. Entries after “also recorded” stand apart in the source; their conditions may differ. Read-outs that look alike come from different tables or passages of the source.

Legend:
mGlu3 [1] = biological target: T1, mGlu3 (Homo sapiens, UniProt Q14832); assay: mGlu3 GIRK assay; format: cell-based
[2] = Intrinsic clearance in human liver microsomes; format: in vitro ADME
mGlu3 [3] = biological target: T1, mGlu3; assay: Schild analysis, glutamate concentration-response in mGlu3 GIRK; format: cell-based; conditions: rightward shift and decreased maximal efficacy of glutamate
[4] = Metabolite ID in human liver microsomes; format: in vitro ADME
mGlu3 [5] = biological target: T1, mGlu3; assay: mGlu3 calcium assay, mGlu3 co-expressed with promiscuous G protein Gα15; format: cell-based
IP plasma:brain level = format: in vivo, rat; conditions: 10 mg/kg IP
[6] = system: 68 GPCRs, ion channels and transporters; assay: Lead Profiling Screen at Ricerca, radioligand binding assays; conditions: screened at 10 μM, 68 targets
[7] = Intrinsic clearance in rat liver microsomes; format: in vitro ADME
mGlu5 = mGlu5 (Homo sapiens, UniProt P41594); assay: mGlu5 calcium assay; format: cell-based
[8] = Metabolite ID in rat liver microsomes; format: in vitro ADME
mGlu2 = mGlu2 (Homo sapiens, UniProt Q14416); assay: mGlu2 GIRK assay; format: cell-based; conditions: mGlu3 NAM potency versus mGlu2 GIRK
six other mGlu subtypes = assay: Activity at the six other mGlu subtypes; format: cell-based
[9] = 10% Tween80 in 0.5% methylcellulose

Sequence of mGlu5 (P41594 21-1212): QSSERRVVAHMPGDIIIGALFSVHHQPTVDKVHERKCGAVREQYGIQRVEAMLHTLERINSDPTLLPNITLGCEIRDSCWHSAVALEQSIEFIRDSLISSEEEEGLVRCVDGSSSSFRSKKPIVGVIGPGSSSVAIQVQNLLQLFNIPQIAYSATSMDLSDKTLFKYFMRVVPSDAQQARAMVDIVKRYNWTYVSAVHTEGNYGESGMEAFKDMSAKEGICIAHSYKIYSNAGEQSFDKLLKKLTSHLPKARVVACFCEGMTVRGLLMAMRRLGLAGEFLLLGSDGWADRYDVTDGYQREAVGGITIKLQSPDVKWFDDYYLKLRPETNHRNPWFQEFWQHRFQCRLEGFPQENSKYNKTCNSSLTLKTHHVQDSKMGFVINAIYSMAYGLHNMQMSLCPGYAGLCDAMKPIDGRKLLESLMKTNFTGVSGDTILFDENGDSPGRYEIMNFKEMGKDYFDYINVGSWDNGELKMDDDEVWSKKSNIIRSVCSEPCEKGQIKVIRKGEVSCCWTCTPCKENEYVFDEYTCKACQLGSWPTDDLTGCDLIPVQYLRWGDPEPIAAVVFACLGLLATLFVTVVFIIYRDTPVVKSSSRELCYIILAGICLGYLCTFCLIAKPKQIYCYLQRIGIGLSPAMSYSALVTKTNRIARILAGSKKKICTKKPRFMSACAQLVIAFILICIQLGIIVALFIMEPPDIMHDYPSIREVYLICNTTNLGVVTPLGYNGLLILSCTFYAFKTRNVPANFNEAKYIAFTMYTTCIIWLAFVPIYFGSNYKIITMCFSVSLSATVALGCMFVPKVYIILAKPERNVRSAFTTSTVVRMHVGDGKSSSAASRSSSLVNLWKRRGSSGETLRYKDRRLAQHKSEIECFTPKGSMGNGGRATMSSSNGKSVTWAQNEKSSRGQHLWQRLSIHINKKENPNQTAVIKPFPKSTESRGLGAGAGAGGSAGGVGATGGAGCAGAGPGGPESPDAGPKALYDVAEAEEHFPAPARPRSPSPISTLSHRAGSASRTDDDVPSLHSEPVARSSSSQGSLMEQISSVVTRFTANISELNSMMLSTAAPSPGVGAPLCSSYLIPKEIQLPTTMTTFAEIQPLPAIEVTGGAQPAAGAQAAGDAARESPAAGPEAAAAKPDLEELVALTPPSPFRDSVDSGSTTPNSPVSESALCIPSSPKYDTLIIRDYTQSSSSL
T1 sequence (Q14832 23-879): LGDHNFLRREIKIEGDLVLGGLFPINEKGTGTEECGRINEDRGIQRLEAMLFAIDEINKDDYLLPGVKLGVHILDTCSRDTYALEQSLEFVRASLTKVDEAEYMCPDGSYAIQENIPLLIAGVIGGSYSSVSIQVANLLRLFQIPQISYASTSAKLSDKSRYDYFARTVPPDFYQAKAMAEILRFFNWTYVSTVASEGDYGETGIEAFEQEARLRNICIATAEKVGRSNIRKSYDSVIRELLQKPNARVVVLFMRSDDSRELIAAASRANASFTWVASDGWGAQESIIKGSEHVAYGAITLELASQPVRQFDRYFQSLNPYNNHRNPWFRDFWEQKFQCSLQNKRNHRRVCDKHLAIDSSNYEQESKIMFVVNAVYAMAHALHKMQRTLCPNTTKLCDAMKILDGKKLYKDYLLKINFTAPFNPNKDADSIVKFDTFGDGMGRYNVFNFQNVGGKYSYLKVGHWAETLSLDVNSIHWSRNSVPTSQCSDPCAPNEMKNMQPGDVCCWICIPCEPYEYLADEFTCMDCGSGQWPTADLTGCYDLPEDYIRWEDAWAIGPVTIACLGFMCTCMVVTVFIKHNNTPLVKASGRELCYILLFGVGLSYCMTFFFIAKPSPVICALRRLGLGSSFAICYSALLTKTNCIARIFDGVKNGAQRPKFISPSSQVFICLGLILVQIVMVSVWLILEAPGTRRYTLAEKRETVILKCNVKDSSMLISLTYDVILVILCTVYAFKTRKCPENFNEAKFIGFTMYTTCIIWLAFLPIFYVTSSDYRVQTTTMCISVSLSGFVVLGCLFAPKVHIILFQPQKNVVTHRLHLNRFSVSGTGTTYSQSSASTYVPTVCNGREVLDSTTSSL
Sequence of mGlu2 (Q14416 19-872): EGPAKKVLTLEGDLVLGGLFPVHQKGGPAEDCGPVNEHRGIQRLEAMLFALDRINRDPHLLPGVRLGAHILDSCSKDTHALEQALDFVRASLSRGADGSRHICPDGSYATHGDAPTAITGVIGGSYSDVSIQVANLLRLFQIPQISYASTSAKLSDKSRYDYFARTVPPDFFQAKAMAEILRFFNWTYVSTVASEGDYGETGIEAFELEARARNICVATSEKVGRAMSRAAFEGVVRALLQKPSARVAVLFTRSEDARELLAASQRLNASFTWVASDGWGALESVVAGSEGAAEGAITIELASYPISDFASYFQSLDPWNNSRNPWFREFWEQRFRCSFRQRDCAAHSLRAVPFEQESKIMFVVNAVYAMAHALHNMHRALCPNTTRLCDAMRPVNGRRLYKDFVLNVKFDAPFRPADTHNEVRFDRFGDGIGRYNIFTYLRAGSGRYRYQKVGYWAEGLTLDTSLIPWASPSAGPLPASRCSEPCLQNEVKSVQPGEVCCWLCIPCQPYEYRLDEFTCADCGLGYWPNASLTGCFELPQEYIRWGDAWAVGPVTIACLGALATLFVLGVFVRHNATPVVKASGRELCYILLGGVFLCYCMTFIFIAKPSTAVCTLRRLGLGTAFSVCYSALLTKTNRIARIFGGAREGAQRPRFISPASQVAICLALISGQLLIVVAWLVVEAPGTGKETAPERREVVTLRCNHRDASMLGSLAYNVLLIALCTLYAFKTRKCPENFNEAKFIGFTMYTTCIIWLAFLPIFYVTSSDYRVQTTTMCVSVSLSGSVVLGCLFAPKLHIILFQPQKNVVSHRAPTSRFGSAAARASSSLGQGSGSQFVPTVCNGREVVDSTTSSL

In the case of `COc1ccc(C#Cc2ccc(C(=O)N3CCC[C@H](CO)C3)cc2)cc1` [Compound 12], the “block of the glutamate EC80 (in words)” value (mGlu3 [1]; mGlu3 GIRK assay) is reported as “full blockade”.
With `COc1ccc(C#Cc2ccc(C(=O)N3CCC[C@@H](CO)C3)cc2)cc1` [Compound 11] the “block of the glutamate EC80 (in words)” value (mGlu3 [1]; mGlu3 GIRK assay) was “full blockade”, the “potency ratio of 11 over 12” value (mGlu3 [1]; mGlu3 GIRK assay) was 2 fold and the CLint scaled [2] was 572 mL/min/kg. For the same molecule, the “mechanism of mGlu3 antagonism” value (mGlu3 [3]) was “non-competitive (allosteric) mechanism of action”, the principle biotransformation pathway [4] was “P450-mediated O-demethylation” and the “% Glu Min” value (mGlu3 [5]) was 2.1±0.3%. The brain level (IP plasma:brain level; [9]) was 16.3 µM, the plasma level (IP plasma:brain level; [9]) was 9.7 µM and the “free concentration in rat brain” value (IP plasma:brain level; based on brain homogenate binding) was ~ 163 nM. For the same molecule, the inhibition of off-targets [6] was ≤ 25%, the CLint scaled [7] was 240 mL/min/kg and the “activity/selectivity against mGlu5 (in words)” value (mGlu5) was “complete specificity versus mGlu5”. The “activity/selectivity against mGlu5 (in words)” value (mGlu5; listed as ML289) was “inactive; also recorded: highly selective versus mGlu5”, the “potentiation of an EC20 concentration of glutamate at mGlu5” value (mGlu5; mGlu5 calcium assay, PAM mode) was “inactive” and the “inhibition of an EC80 concentration of glutamate at mGlu5” value (mGlu5; mGlu5 calcium assay, antagonist mode) was “inactive”. For the same molecule, the principle biotransformation pathway [8] was “P450-mediated O-demethylation” and the “selectivity versus mGlu2” value (mGlu2) was > 15 fold.
For `COc1ccc(C#Cc2ccc(C(=O)N3CCCC(CO)C3)cc2)cc1` (stereo not drawn) [Compound 10e], the “block of the glutamate EC80 (in words)” value (mGlu3 [1]; mGlu3 GIRK assay) was “full block”.
For `O=C(c1ccc(C#Cc2ccccc2)cc1)N1CCC(O)CC1` [Compound 3], the IC50 (mGlu3 [1]; mGlu3 IC50, mGlu3 GIRK assay) was ~10 µM and > 10 µM and the “activity at the six other mGlu subtypes” value (six other mGlu subtypes) was “no activity”.
